Results: patent US8343696B2, “Colored curable composition, fluorine-containing dipyrromethene compound and tautomer thereof, and fluorine-containing dipyrromethene metal complex and tautomer thereof, and color filter using the same and method for producing the color filter” (FUJIFILM Corporation, priority 2008, dated 2013)

Experiments:
Format in all cases: physicochemical
[1] = Absorption spectrum in ethyl acetate solution (spectrophotometer UV-2400PC)
Protocol: In consideration of film thickness, the molar absorption coefficient of the specific metal complex compounds-1, -2, -3 and -4 of the invention is preferably as high as possible, and 60,000 or higher is preferable. The maximum absorption wavelength (λmax) thereof is preferably from 520 nm to 580 nm, and more preferably from 530 nm to 570 nm, in order to improve color purity. The maximum absorption wavelength and the molar absorption coefficient are determined by using a spectrophotometer UV-2400PC (manufactured by Shimadzu Corporation).
The molar absorption coefficient (ε) of each of the obtained compounds was measured in an ethyl acetate solution using a spectrophotometer (trade name: UV-2400PC; manufactured by Shimadzu Corporation). The absorbance (Abs) at 450 nm was evaluated by normalizing the absorbance at a maximum absorption wavelength (λmax) to 1.0. […] The measurement results of the absorbance (Abs value), maximum absorption wavelength (λmax), and molar absorption coefficient (ε) are shown in Table 1.
By the method similar to the reaction scheme in Synthesis Example 1 above, the exemplary compounds (dipyrromethene metal complex compounds or tautomers thereof) shown in Table 1 were synthesized. The identification of the compounds and the measurement of the maximum absorption wavelength (λmax) and the molar absorption coefficient (ε) of the compounds were performed similarly to Synthesis Example 1 above.

[2] = Storage stability of colored resist solution (precipitation after one month at room temperature); design: key: A: No precipitation was observed; B: Slight precipitation was observed; C: Precipitation was observed; details: negative-working colored resist solution, visual precipitation
From the text: 9.4 g of the resist solution obtained in section 1 above and 0.35 g of the exemplary compound Ia-12 synthesized above (a compound represented by Formula (4): dipyrromethene complex compound) were mixed and dissolved, whereby a colored resist solution (a negative-working ultraviolet-sensitive colored curable composition) was obtained.
The colored resist solution was stored for one month at room temperature, and then degree of precipitation was visually observed. The storage stability was evaluated according to the following criteria.
A: No precipitation was observed
B: Slight precipitation was observed
C: Precipitation was observed

[3] = Transmittance at 450 nm of the color filter; details: negative-working colored resist, 1.0 μm film; transmittance at λmax normalized to 2%
Protocol: The colored resist solution obtained in section 3 above was applied to an undercoat layer side of the glass substrate having an undercoat layer obtained in section 2 above by a spin coater such that a film thickness was 1.0 μm. Subsequently, the film was pre-baked at 100° C. for 120 sec, whereby a monochromatic color filter was obtained.
The transmission spectrum of the color filter obtained above was measured, and the transmittance at 450 nm was evaluated according to the following criteria. The transmittance of the color filter at 450 nm was evaluated by correcting (normalizing) the transmittance at the maximum absorption wavelength of the colorant included in the color filter to 2%. A larger transmittance indicates greater transmission of blue light, which indicates favorable magenta or violet color that can be used in a blue filter.
A: Transmittance at 450 nm was 90% or more
B: Transmittance at 450 nm was 80% or more but not more than 90%
C: Transmittance at 450 nm was not more than 80%

[4] = Heat resistance of coating film (color difference ΔEab before and after heating); details: 100° C. for 1 hour on hot plate
Protocol: A glass substrate having undercoat layer formed by applying the colored resin composition obtained in section 3 above was heat-treated at 100° C. for 1 hour using a hot plate, and the color difference (ΔEab) between before and after the heating was determined by using a […] MCPD-1000 (trade name, manufactured by Otsuka Electronics Co., Ltd.). The heat resistance was evaluated according to the following criteria. A smaller AEab value indicates better heat resistance.
(§1) A: ΔEab value was less than 6
(§2) B: ΔEab value was from 6 to 10
(§3) C: ΔEab value was more than 10

[5] = Light-fastness of coating film (color difference ΔEab before and after xenon lamp irradiation); details: xenon lamp 20,000 luxes for 10 hours (200,000 lux·h)
Protocol: A glass substrate having undercoat layer formed by applying the colored resin composition obtained in section 3 above was irradiated with a xenon lamp at an intensity of 20,000 luxes for 10 hours (equivalent to 200,000 lux·h), and the color difference ΔEab between before and after the irradiation was determined. The light-fastness was evaluated according to the following criteria. A smaller ΔEab value indicates better light-fastness.
as §1, §2, §3

Compound	maximum absorption wavelength (λmax) [1]	molar absorption coefficient (ε) [1]	Abs value at 450 nm when normalized to Abs = 1.0 at λmax [1]	Storage stability [2]	Transmittance at 450 nm [3]	Heat resistance [4]	Light-fastness [5]
CC1CC(C(C)(C)C)C(OC(=O)C2=C(c3ccccc3)C3=Cc4c(-c5ccccc5)c(C(=O)OC5C(C(C)(C)C)CC(C)CC5C(C)(C)C)c(NC(=O)c5cc(C(F)(F)F)cc(C(F)(F)F)c5)[n]4[Zn-]([OH])[N+]3=C2NC(=O)c2cc(C(F)(F)F)cc(C(F)(F)F)c2)C(C(C)(C)C)C1 (stereo not drawn) [IIb-14]	560 nm	117,400	0.01	A	A (Transmittance at 450 nm was 90% or more)	A (ΔEab value was less than 6)	A (ΔEab value was less than 6)
Cc1c(C(=O)OC2C(C(C)(C)C)CC(C)CC2C(C)(C)C)c(NC(=O)c2ccc(C(F)(F)F)cc2)[n]2c1C=C1C(c3ccccc3)=C(C#N)C(NC(=O)C(C)Sc3cc(C(=O)O)cc(C(=O)O)c3)=[N+]1[Zn-]2[OH] (stereo not drawn) [Ia-23]	558 nm	83,200	0.0099	A	A (Transmittance at 450 nm was 90% or more)	A (ΔEab value was less than 6)	A (ΔEab value was less than 6)
CC1=C(C(=O)OC2C(C(C)(C)C)CC(C)CC2C(C)(C)C)C(NC(=O)c2cccc(C(F)(F)F)c2)=[N+]2C1=Cc1c(C)c(C(=O)OC3C(C(C)(C)C)CC(C)CC3C(C)(C)C)c(NC(=O)c3cccc(C(F)(F)F)c3)[n]1[Zn-]2[OH] (stereo not drawn) [IIa-6]	552 nm	106,300	0.0127	A	A (Transmittance at 450 nm was 90% or more)	A (ΔEab value was less than 6)	A (ΔEab value was less than 6)
CC1CC(C(C)(C)C)C(OC(=O)c2c(-c3ccccc3)c3[n](c2NC(=O)c2ccc(F)c(F)c2)[Zn-]([OH])[N+]2=C(NC(=O)C(C)Sc4cc(C(=O)O)cc(C(=O)O)c4)C(C#N)=C(c4ccccc4)C2=C3)C(C(C)(C)C)C1 (stereo not drawn) [Ib-35]	562 nm	80,500	0.0173	A	A (Transmittance at 450 nm was 90% or more)	A (ΔEab value was less than 6)	A (ΔEab value was less than 6)
CC1CC(C(C)(C)C)C(OC(=O)c2c(-c3ccccc3)c(C=C3N=C(NC(=O)CCCSc4cc(C(=O)O)cc(C(=O)O)c4)C(C#N)=C3c3ccccc3)[n]([Zn][OH])c2NC(=O)c2cc(F)cc(F)c2F)C(C(C)(C)C)C1 (stereo not drawn) [Ib-59]	559 nm	93,900	0.0083	A	A (Transmittance at 450 nm was 90% or more)	A (ΔEab value was less than 6)	A (ΔEab value was less than 6)
CC1=C(C(=O)OC2C(C(C)(C)C)CC(C)CC2C(C)(C)C)C(NC(=O)c2ccc(C(F)(F)F)cc2F)=[N+]2C1=Cc1c(C)c(C(=O)OC3C(C(C)(C)C)CC(C)CC3C(C)(C)C)c(NC(=O)c3ccc(C(F)(F)F)cc3F)[n]1[Zn-]2[OH] (stereo not drawn) [IIa-15]	550 nm	116,700	0.0095	B	A (Transmittance at 450 nm was 90% or more)	A (ΔEab value was less than 6)	A (ΔEab value was less than 6)
Cc1c(C(=O)OC2C(C(C)(C)C)CC(C)CC2C(C)(C)C)c(NC(=O)c2ccccc2C(F)(F)F)[n]2c1C=C1C(c3ccccc3)=C(C#N)C(NC(=O)C(C)Sc3cc(C(=O)O)cc(C(=O)O)c3)=[N+]1[Zn-]2[OH] (stereo not drawn) [Ia-12]	560 nm	81,400	0.0154	A	A (Transmittance at 450 nm was 90% or more)	A (ΔEab value was less than 6)	A (ΔEab value was less than 6)
CC1=C(C(=O)OC2C(C(C)(C)C)CC(C)CC2C(C)(C)C)C(NC(=O)c2ccc(F)c([N+](=O)[O-])c2)=[N+]2C1=Cc1c(C)c(C(=O)OC3C(C(C)(C)C)CC(C)CC3C(C)(C)C)c(NC(=O)c3ccc(F)c([N+](=O)[O-])c3)[n]1[Zn-]2[OH] (stereo not drawn) [IIa-25]	555 nm	126,900	0.0081	B	A (Transmittance at 450 nm was 90% or more)	A (ΔEab value was less than 6)	A (ΔEab value was less than 6)
CC1CC(C(C)(C)C)C(OC(=O)C2=C(c3ccccc3)C3=Cc4c(-c5ccccc5)c(C(=O)OC5C(C(C)(C)C)CC(C)CC5C(C)(C)C)c(NC(=O)c5c(F)c(F)c(F)c(F)c5F)[n]4[Zn-]([OH])[N+]3=C2NC(=O)c2c(F)c(F)c(F)c(F)c2F)C(C(C)(C)C)C1 (stereo not drawn) [IIb-40]	562 nm	107,300	0.0087	A	A (Transmittance at 450 nm was 90% or more)	A (ΔEab value was less than 6)	A (ΔEab value was less than 6)
CC1=C(C(=O)OC2C(C(C)(C)C)CC(C)CC2C(C)(C)C)C(NC(=O)c2c(F)c(F)c(O)c(F)c2F)=[N+]2C1=Cc1c(C)c(C(=O)OC3C(C(C)(C)C)CC(C)CC3C(C)(C)C)c(NC(=O)c3c(F)c(F)c(O)c(F)c3F)[n]1[Zn-]2[OH] (stereo not drawn) [IIa-39]	553 nm	109,400	0.0119	A	A (Transmittance at 450 nm was 90% or more)	A (ΔEab value was less than 6)	A (ΔEab value was less than 6)
CC1CC(C(C)(C)C)C(OC(=O)c2c(-c3ccccc3)c(C=C3N=C(NC(=O)C(C)(C)C)C(C#N)=C3c3ccccc3)[n]([Zn][OH])c2NC(=O)c2c(F)c(F)c(C(=O)O)c(F)c2F)C(C(C)(C)C)C1 (stereo not drawn) [Ib-69]	557 nm	99,200	0.0111	A	A (Transmittance at 450 nm was 90% or more)	A (ΔEab value was less than 6)	A (ΔEab value was less than 6)
CC1CC(C(C)(C)C)C(OC(=O)c2c(-c3ccccc3)c(C=C3N=C(NC(=O)C(C)(C)C)C(C#N)=C3c3ccccc3)[n]([Zn][OH])c2NC(=O)c2cccc(C(F)(F)F)c2)C(C(C)(C)C)C1 (stereo not drawn) [Ib-14]	561 nm	85,200	0.0105	A	A (Transmittance at 450 nm was 90% or more)	A (ΔEab value was less than 6)	A (ΔEab value was less than 6)
